Data: article PMC8352984, “Estrogen mediates sex differences in preoptic neuropeptide and pituitary hormone production in medaka” (Communications Biology, 2021)

Legend:
[1] = tested on: adcyap1-expressing neurons in the PMp; assay: Gonadectomy and sex steroid treatment, in situ hybridization of adcyap1 in PMp; assay type: in vivo, medaka (Oryzias latipes); conditions: 100 ng ml^-1 in water, 6 days; for number of adcyap1-expressing neurons in PMp: castrated (CX) males
Text: (§1) Fig. 4 Sex-biased expression of adcyap1 and vip in the POA is established by ovarian estrogen. a Levels of adcyap1 and vip expression in the brain of sex-reversed XX males and XY females versus typical XY males and XX females (n = 8 per group). b Number of adcyap1- and vip-expressing neurons in the PMp of sex-reversed XX males and XY females (n = 5 per group). c Representative micrographs showing adcyap1 and vip expression in the PMp of sex-reversed XX males and XY females. Scale bars represent 50 μm. d Number of adcyap1- and vip-expressing neurons in the PMp of sham-operated (sham) males and castrated males exposed to vehicle alone (CX), 11-ketotestosterone (CX + KT), or estradiol-17β (CX + E2) (n = 5 per group, except CX + E2 for adcyap1 and CX + KT for vip, where n = 4). e Representative micrographs showing adcyap1 and vip expression in the PMp of sham, CX, CX + KT, and CX + E2 males. Scale bars represent 50 μm. f Number of adcyap1- and vip-expressing neurons in the PMp of sham females and ovariectomized females exposed to vehicle alone (OVX), KT (OVX + KT), or E2 (OVX + E2) (n = 5 per group). g Representative micrographs showing adcyap1 and vip expression in the PMp of sham, OVX, OVX + KT, and OVX + E2 females. Scale bars represent 50 μm. Quantitative data were expressed as means with error bars representing standard error of the mean. Statistical differences were assessed by Bonferroni’s post-hoc test (a, d, f) and unpaired t-test (b). *p < 0.05; **p < 0.01; ***p < 0.001.
(§2) For both males and females, the gonad was removed under 0.02% tricaine methane sulfonate anesthesia (Sigma–Aldrich, St. Louis, MO, USA) through a small incision in the ventrolateral abdominal wall. Immediately after removal of the gonad, the incision was sutured with nylon thread. Sham-operated fish underwent the same surgical treatment as gonadectomized fish except for gonad removal. After a recovery period of 3 days in saline (0.9% (w v^−1) NaCl), gonadectomized fish were immersed in water containing 100 ng ml^−1 of KT (Cosmo Bio, Tokyo, Japan) or E2 (Fujifilm Wako Pure Chemical Corporation), or vehicle (ethanol) alone for 6 days and then sampled. Sham-operated fish were treated with vehicle alone and used as controls. The sex steroid concentration used was based on previously reported serum steroid levels in medaka.
(§3) The procedure for single-label in situ hybridization has been described elsewhere. In brief, the brain and pituitary were fixed in 4% paraformaldehyde (PFA) and embedded in paraffin. Serial coronal sections of 10 μm thickness were cut and hybridized with each of the six DIG-labeled Adcyap1/Vip receptor probes described above and the DIG-labeled adcyap1 and vip probes used for northern blot analysis. Hybridization signals were visualized by using alkaline phosphatase-conjugated anti-DIG antibody and 5-bromo-4-chloro-3-indolyl phosphate/nitro blue tetrazolium (BCIP/NBT) substrate (Roche Diagnostics). Color development was allowed to proceed for more than 9 h or was stopped after 1.5 h to avoid saturation (for quantification of vip expression after gonadectomy and sex steroid replacement). All sections in each comparison were processed simultaneously under the same conditions.
(§4) To obtain quantitative data, the number of neurons positive for a hybridization signal was counted manually in each brain nucleus. In some brain regions, these neurons were continuously distributed across two or more nuclei such that it was difficult to count the number of the neurons separately in each nucleus. In this case, the total number of the neurons in the nuclei was counted. For the pituitary and nuclei where these neurons were tightly clustered and their exact number could not be determined, sections were photographed and converted to black and white binary images by thresholding using Adobe Photoshop (ver. 22; Adobe Systems, San Jose, CA, USA). […]

[2] = tested on: vip-expressing neurons in the PMp; assay: Gonadectomy and sex steroid treatment, in situ hybridization of vip in PMp; assay type: in vivo, medaka (Oryzias latipes); conditions: 100 ng ml^-1 in water, 6 days; for number of vip-expressing neurons in PMp: castrated (CX) males
Text: as §1, §2, §3, §4

[3] = ovariectomized females, effect on the ovariectomy-induced increase
[4] = ovariectomized females, effect on the ovariectomy-induced reduction

Compound	number of adcyap1-expressing neurons in PMp ([1]; fish 1 (Fig. 4d))	number of adcyap1-expressing neurons in PMp ([1]; fish 3 (Fig. 4d))	number of adcyap1-expressing neurons in PMp ([1]; fish 4 (Fig. 4d))	number of adcyap1-expressing neurons in PMp ([1]; fish 5 (Fig. 4d))	number of adcyap1-expressing neurons in PMp (in words) ([1]; castrated males)	number of adcyap1-expressing neurons in PMp (in words) [1, 3]	number of vip-expressing neurons in PMp ([2]; fish 1 (Fig. 4d))	number of vip-expressing neurons in PMp ([2]; fish 2 (Fig. 4d))	number of vip-expressing neurons in PMp ([2]; fish 3 (Fig. 4d))	number of vip-expressing neurons in PMp ([2]; fish 4 (Fig. 4d))	number of vip-expressing neurons in PMp ([2]; fish 5 (Fig. 4d))	number of vip-expressing neurons in PMp (in words) ([2]; castrated males)	number of vip-expressing neurons in PMp (in words) [2, 4]	number of adcyap1-expressing neurons in PMp ([1]; fish 2 (Fig. 4d))
C[C@]12CC[C@@H]3c4ccc(O)cc4CC[C@H]3[C@@H]1CC[C@@H]2O [E2, estradiol-17β]	56.0	85.0	112.0	79.5	significantly reduced adcyap1-expressing neurons	completely abolished	260.0	388.5	363.0	447.0	311.0	increased vip-expressing neurons	restored	
C[C@]12CC(=O)[C@H]3[C@@H](CCC4=CC(=O)CC[C@@]43C)[C@@H]1CC[C@@H]2O [KT, 11-ketotestosterone]	198.0	273.5	161.5	147.0	did not affect either of these neurons	had no such effect	98.5		118.0	84.5	192.5	did not affect either of these neurons	not KT treatment	271.0
